Series [1] deals with E. faecium (MV388). In kind it is cell-based, Enterococcus faecium. The settings on record: MV388, 24 h. As to the method:
The minimum bactericidal concentration (MBC) is defined as the lowest concentration of the peptidomimetics that kills 99.9% of the bacterial population. All experiments were performed in three biological replicates.

In series [2] the test system is E. faecalis ATCC 29212. The series can be described thus: microbe, parasite or virus in culture. It is filed as cell-based, Enterococcus faecalis. To be noted: ATCC 29212, 24 h.
A short description of series [3]: Hemolytic activity. It is filed as cell-based, human. To be noted: human, human red blood cells (washed, 1% suspension), 37 °C, 1% red blood cell suspension. The method in brief:
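Washed cells (1% suspension) incubated with compound at final 400 μg/mL, 60 min at 37 °C with mild agitation, triplicate wells. Released hemoglobin read at OD405 in supernatant; percent hemolysis normalised to 1% SDS (100%) and PBS (0%).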

In series [4] the test system is E. faecalis 38262. The series can be described thus: microbe, parasite or virus in culture. In kind it is cell-based, Enterococcus faecalis. To be noted: 38262, 24 h.
In series [5] the test system is E. faecalis 39002. The series can be described thus: microbe, parasite or virus in culture. It is filed as cell-based, Enterococcus faecalis. To be noted: 39002, 24 h.
The nature of series [6]: Hydrophobicity by analytical RP-HPLC (% MeCN at peak elution). It is filed as physicochemical. As for the experimental part:
Water was filtered by using an Evoqua LaboStar PRO TWF Ultra Pure Water System prior to use in high-performance liquid chromatography (HPLC). The retention time for each peptidomimetic was determined by analytical HPLC using a Phenomenex Luna C18(2) HST column (100 mm × 3 mm; particle size: 2.5 μm; pore size: 100 Å) on a Shimadzu Prominence and Shimadzu Nexera system using an aqueous MeCN gradient with 0.1% trifluoroacetic acid (TFA) added (eluent A: 5:95 MeCN–H2O + 0.1% TFA; eluent B: 95:5 MeCN–H2O + 0.1% TFA); a flow rate of 0.5 mL/min was used. For the elution of peptidomimetics, a linear gradient of 0% to 60% B over 10 min was used with UV detection at λ = 220 nm. The percentage MeCN at peak elution was calculated from the retention time (tR) by using the following formula:%MeCN = [0.95 × 0.6 × tR/10 + 0.05 × (1 − 0.6 × tR/10)] × 100%

Series [7] has as its system E. faecalis ATCC 29212. The series can be described thus: Time-kill kinetics. It is filed as cell-based, Enterococcus faecalis. To be noted: for Reduction in viable bacteria (time-kill): 4× MIC (compound 2: 8 µg/mL, 2–4× MIC), 5 h exposure, BHI broth. As to the method:
Time–kill kinetics were established for compounds 2, 5 and 10 in E. faecium ATCC 19434 and E. faecalis ATCC 29212. Prior to the experiments, the isolates were incubated on BHI agar supplemented with 5% calf blood at 37 °C overnight (ON). For each of the strains 1-2 colonies were transferred into 4 mL BHI broth and incubated ON at 37 °C with shaking (180 rpm). OD600 was measured, and then cultures were diluted with BHI broth to an OD600 of 0.05 and grown for approximately 2 h to reach the exponential phase.
One untreated control per strain was prepared. The inoculum was quantified by plating and subsequently enumerated. The initial inocula were approximately 10^7 CFU/mL. Two controls were included, both without bacteria and one including the respective compound without bacteria. All tubes were incubated at 37 °C with shaking (180 rpm). Samples of 100 µL were taken after 1 h, 3 h and 5 h of exposure. Appropriate dilutions were spread onto BHI agar plates and incubated at 37 °C overnight, and then colonies were enumerated. Plates were incubated for 24 h and 48 h, and then checked for the appearance of slow-growing colonies. The experiments were performed with at least three biological replicates for each condition and time point.

For series [8], the system named is E. faecium 2961. In words: microbe, parasite or virus in culture. It is filed as cell-based, Enterococcus faecium. To be noted: 2961, 24 h.
The subject of series [9] is E. faecium 1798. The series can be described thus: microbe, parasite or virus in culture. It is filed as cell-based, Enterococcus faecium. The settings on record: 1798, 24 h.
Series [10] relates to E. faecium D344R. The series can be described thus: microbe, parasite or virus in culture. In kind it is cell-based, Enterococcus faecium. To be noted: E. faecium D344R, human clinical isolate; 24 h.
In series [11] the test system is E. faecium 3978. In words: microbe, parasite or virus in culture. In kind it is cell-based, Enterococcus faecium. To be noted: 3978, 24 h.

Converted amounts (≈) assume the structure as drawn. Where only a bound is given, the exact number is not on record here.

On to `CC(=O)N[C@@H](CCCCNC(=N)N)C(=O)N(CCC(=O)N[C@@H](CCCCNC(=N)N)C(=O)N(CCC(=O)N[C@@H](CCCCNC(=N)N)C(=O)N(CCC(=O)N[C@@H](CCCCNC(=N)N)C(=O)N(CCC(=O)N[C@@H](CCCCNC(=N)N)C(=O)N(CCC(=O)N[C@@H](CCCCNC(=N)N)C(=O)N(CCC(N)=O)[C@@H](C)C1CCCCC1)[C@@H](C)C1CCCCC1)[C@@H](C)C1CCCCC1)[C@@H](C)C1CCCCC1)[C@@H](C)C1CCCCC1)[C@@H](C)C1CCCCC1` [Compound 2, Ac-[hArg-βNsce]6-NH2], for which the Minimum bactericidal concentration in series [1] is 4 to 8 mg/L. For the same compound, the Minimum inhibitory concentration is 2 to 4 mg/L in [2]; 4 mg/L (≈ 1.84 µM) in series [4]; 2 mg/L (≈ 0.922 µM) in series [5]; 2 mg/L (≈ 0.922 µM) in [8]; 2 mg/L (≈ 0.922 µM) in [9]; 2 mg/L (≈ 0.922 µM) in series [10]. The compound also yielded a Minimum inhibitory concentration in series [11] of 2 mg/L (≈ 0.922 µM). Besides, the hemolysis at 60 min, 400 µg/mL in [3] was 98.4%. The “Hydrophobicity, Luna C18(2) HST (0–60% B; 10 min), retention converted into % MeCN” value (“Hydrophobicity … retention converted into % MeCN” for short) in series [6] turned out to be 51.6 % MeCN. Also, in series [7], the “Reduction in viable bacteria (time-kill)” value was “approximately 2 log”.
`CC(=O)N[C@@H](CCCCNC(=N)N)C(=O)N(CCC(=O)N[C@@H](CCCCN)C(=O)N(CCC(=O)N[C@@H](CCCCNC(=N)N)C(=O)N(CCC(=O)N[C@@H](CCCCN)C(=O)N(CCC(=O)N[C@@H](CCCCNC(=N)N)C(=O)N(CCC(=O)N[C@@H](CCCCN)C(=O)N(CCC(N)=O)[C@@H](C)c1ccccc1)[C@@H](C)C1CCCCC1)[C@@H](C)c1ccccc1)[C@@H](C)C1CCCCC1)[C@@H](C)c1ccccc1)[C@@H](C)C1CCCCC1` [Compound 5, Ac-[hArg-βNsce-Lys-βNspe]3-NH2] showed a Minimum bactericidal concentration in series [1] of 128 mg/L (≈ 63.2 µM). Also, the Minimum inhibitory concentration in series [2] was 4 to 8 mg/L; in series [4], 8 to 16 mg/L; in series [5], 8 to 16 mg/L; in series [8] it was 2 mg/L (≈ 0.988 µM); in series [9], 2 mg/L (≈ 0.988 µM); in [10], 2 mg/L (≈ 0.988 µM). This compound returned a Minimum inhibitory concentration in series [11] of 2 mg/L (≈ 0.988 µM). The hemolysis at 60 min, 400 µg/mL in series [3] is under 10%. The “Hydrophobicity … retention converted into % MeCN” value in [6] is 46.6 % MeCN. In series [7], the “Reduction in viable bacteria (time-kill)” value stood at 3 log. In addition, the “Reduction in viable cell counts within 1 h” value in series [7] (4× MIC, within 1 h of exposure) is listed as “no reduction in viable cell counts”.
In series [1], `CCCCCCCC(=O)N[C@@H](CCCCN)C(=O)N(CCC(=O)N[C@@H](CCCCN)C(=O)N(CCC(=O)N[C@@H](CCCCN)C(=O)N(CCC(=O)N[C@@H](CCCCN)C(=O)N(CCC(=O)N[C@@H](CCCCN)C(=O)N(CCC(=O)N[C@@H](CCCCN)C(=O)N(CCC(N)=O)[C@@H](C)c1ccccc1)[C@@H](C)c1ccccc1)[C@@H](C)c1ccccc1)[C@@H](C)c1ccccc1)[C@@H](C)c1ccccc1)[C@@H](C)c1ccccc1` [Compound 10, Oct-[Lys-βNspe]6-NH2] registered a Minimum bactericidal concentration of 16 mg/L (≈ 8.15 µM). Further, the Minimum inhibitory concentration is 8 to 16 mg/L in [2]; 16 mg/L (≈ 8.15 µM) in series [4]; 8 mg/L (≈ 4.07 µM) in [5]; 4 mg/L (≈ 2.04 µM) in [8]; 2 to 4 mg/L in series [9]; 4 mg/L (≈ 2.04 µM) in series [10]. In [11], this compound returned a Minimum inhibitory concentration of 2 to 4 mg/L. The hemolysis at 60 min, 400 µg/mL in [3] is under 10%. Besides, in series [6], the “Hydrophobicity … retention converted into % MeCN” value worked out at 47.2 % MeCN. Moreover, the “Reduction in viable bacteria (time-kill)” value in series [7] is listed as 5 log.

Values taken from article PMC8197855, “Peptide/β-Peptoid Hybrids with Activity against Vancomycin-Resistant Enterococci: Influence of Hydrophobicity and Structural Features on Antibacterial and Hemolytic Properties” (International Journal of Molecular Sciences, 2021).
